Source: patent publication US20140288010A1, “Compositions and Methods for Increasing Stem Cell Survival” (Georgia Regents Research Institute, Inc., priority 2013, published 2014)
Blank lines part the entries; values can stand above or below the molecule they belong to.

Assays:
[1] = test system: Smad1/5/8-mediated BMP-2 signal transduction; test: BMP receptor signaling by Western blot ((p)Erk1/2, (p)Smad1/5/8) in BMSCs; type: cell-based, mouse; details: for effect of pretreatment on SDF-1β potentiation of BMP-2 signal transduction: pretreatment 4 h, 600 μM AMD3100 or 50 μM U0126, before 300 ng/ml BMP-2
Source text: FIGS. 17A and 17D are images of autoradiograms of western blots detecting pErk 1/2, Erk1/2, pSmad 1/5/8, Smad 1/5/8, and beta-actin (loading control) of isolated BMSC cells: Tet-Off-SDF-1β with and without Dox, BMP2, AMD3100, U0126, and combinations thereof (FIG. 17A) and Tet-Off-EV controls with and without Dox, BMP2, AMD3100, U0126, and combinations thereof (FIG. 17D). FIGS. 17B-C and 17E-F are bar graphs showing densitometry quantification of immunoreactive bands of FIGS. 17A and 17D as a ratio of pErk 1/2 to Erk1/2 (17B and 17E) and pSmad 1/5/8 to Smad 1/5/8 (17C and 17F).
(§1) BMP receptor signaling was assessed by Western blot. Serum-starved BMSCs were pretreated with 600 μM AMD3100, 50 μM U0126, or vehicle for 4 h prior to stimulation with 300 ng/ml BMP-2 for 30 min. Whole cell lysates were subjected to SDS-PAGE, electroblotted onto PVDF membranes, and probed for (p)Erk1/2 and (p)Smad1/5/8. Transwell migration assays were performed using conditioned media from genetically engineered BMSCs in lower chambers. Serum-starved Jurkat cells or BMSCs at 5.0-8.0×10^5 cells/ml in upper chambers were allowed to migrate across the 8-μm membranes for 4-8 h prior to quantifying total DNA with CyQuant GR dye at 485/535 nm. Apoptosis was induced with 1.0 mM H2O2 for 6 h. Cell death was quantified by trypan blue staining and Western blot analysis of cleaved caspase-3 and PARP. Autophagy was evaluated by Western blot for LC3-II.

18 month MSCs [2] = test: Osteogenic differentiation of MSCs, Alizarin red staining for calcium deposition; type: cell-based, mouse; details: for increase of Alizarin red staining for calcium compared to control cells: osteogenic differentiation of MSCs, terminal stages
Source text: (§2) Low passage MSCs from 18 and 24 month old adult male C57BL/6 mice, procured from the GHSU Institute of Regenerative and Reparative Medicine Stem Cell Core (IRRM-SSC) were used. This age range was chosen based on associated changes in bone formation and mass in the comparatively aged mice (Zhang, et al., Journal of Bone and Mineral Research, 23:1118-1128 (2008)).
To determine the influence of modulating SDF-1 signaling in osteogenic differentiation of 18 month MSCs, the calcium deposition at the terminal stages of differentiation was measured. […] However, the SDF-1β stimulated calcium-staining was reduced by ˜8 fold (FIG. 9B) with co-treatment with C1.SDF-10.

SDF-1 = test: qRTPCR of SDF1β, CXCR4 and LC3B mRNA in MSCs after metformin treatment; type: cell-based, mouse; details: MSCs treated with metformin compared to controls
LC3B, p62, pERK = test: Western blot of LC3B, p62 and pERK in aged MSCs (autophagy and MAPK pathway); type: cell-based, mouse
Source text: Low passage MSCs from 18 and 24 month old adult male C57BL/6 mice, procured from the GHSU Institute of Regenerative and Reparative Medicine Stem Cell Core (IRRM-SSC) were used.
Redistribution of LC3B from cytosol (18 kDa) to an autophagosome (16 kDa) is an indication of autophagy induction. P62, also known as sequestosome 1/SQSTM1, is a ubiquitously expressed protein, best characterized for selective autophagy, directly interacts with LC3B on the phagophore through the LC3-interacting region and then degraded.

CXCR4 = CXCR4 (Mus musculus, UniProt P70658); details: BM supernatant of 3 or 18 month old mice normalized to 150 pg/ml SDF-1; both age groups
Procedure: BM supernatant from 3 or 18 month old mice were normalized by dilution with saline to yield 150 pg/ml of SDF-1 as determined by ELISA. The normalized BM supernatant was added to the lower chamber and the cells (either pretreated with AMD3100 or not) were permitted to migrate for 6 hours.

18 month MSCs [3] = test: Transwell migration of 18 month MSCs; type: cell-based, mouse; details: 6 hours treatment
Source text: The data shown are averages of quadruplicate wells. Bar graph represents RFU of migrated cells normalized to vehicle control group +/−SEM. *p<0.05 verse control group.
as §2
(§3) Recombinant active SDF-1β (i.e. full length amino acids 1-72; 100 ng/mL; Peprotech), Recombinant Mouse DPPIV/CD26 enzyme (0.01 μg; R&D) cleaved (Cl.) SDF-1β (aa3-72; 100 ng/mL) (Christopherson, et al., Blood, 101:4680-4686 (2003)), and AMD3100 (400 μM; R&D), an antagonist of SDF-1/CXCR4 axis (Liu, et al., Protein & Cell, 2:845-854 (2011)).
The migration efficiency of 18 month MSCs in response to SDF-1β, its cleaved form and AMD3100, as a positive control, was tested using a transwell migration system.

BMSCs [4] = test: Cell viability after H2O2 treatment by trypan blue exclusion staining; type: cell-based, mouse; details: 1.0 mM H2O2 for 6 h; p<0.001
Source text: BMSCs were transduced with retroviral Tet-Off expression vectors. The sequential protocol of retrovirus production, two-step infection, and selection to generate double-stable Tet-Off-SDF-1β BMSCs and Tet-Off-EV control BMSCs has been described previously (Herberg, et al., Tissue Eng Part A, 19:1-13 (2013)). In brief, 293GPG packaging cells (Ory, et al., Proc. Natl. Acad. Sci. USA, 93:11400-11406 (1996)) were transfected at passage 8 with retroviral Tet-Off expression vectors containing the SDF-1β coding sequence, or empty control (cat#632105) (Clontech Laboratories, Mountain View, Calif., USA). […]
The viability of BMSCs in response to H2O2 treatment was analyzed using standard trypan blue exclusion staining Cells were washed with PBS, lifted with trypsin/EDTA, and resuspended with normal growth medium. Following 1:5 dilution, BMSC suspensions were mixed with an equal volume of 0.4% trypan blue staining solution (cat#15250061) (Gibco, Invitrogen), and counted in 5 inner squares using a hemacytometer with cover slip (Hausser Scientific, Horsham, Pa., USA).
BMP receptor signaling was assessed by Western blot. […] Serum-starved Jurkat cells or BMSCs at 5.0-8.0×10^5 cells/ml in upper chambers were allowed to migrate across the 8-μm membranes for 4-8 h prior to quantifying total DNA with CyQuant GR dye at 485/535 nm. […] Autophagy was evaluated by Western blot for LC3-II.

BMSCs [5] = test: Transwell migration toward conditioned media from genetically engineered BMSCs, BMSCs; type: cell-based, mouse; details: 4-8 h, p<0.01
Procedure: as §1

AMPK-α1 and LC3B = test: qRTPCR of AMPK-α1 and LC3B mRNA in MSCs; type: cell-based, mouse; details: 24 month MSCs; 100 ng/ml for 48 hours
Procedure: FIG. 7 is bar graph showing the results of an assay measuring the level of AMPK-alpha1 and LC3B mRNA in 24 month MSCs control cells and cells treated with 100 ng/ml of active SDF-1β for 48 hours. *p<0.05 compared to control group.
as §2, §3

[6] = test system: CXCR4-expressing Jurkat cells; test: Transwell migration toward conditioned media from genetically engineered BMSCs, Jurkat cells; type: cell-based; details: 4-8 h, p<0.01
Procedure: as §1

Chain of CXCR4 (P70658 whole entry): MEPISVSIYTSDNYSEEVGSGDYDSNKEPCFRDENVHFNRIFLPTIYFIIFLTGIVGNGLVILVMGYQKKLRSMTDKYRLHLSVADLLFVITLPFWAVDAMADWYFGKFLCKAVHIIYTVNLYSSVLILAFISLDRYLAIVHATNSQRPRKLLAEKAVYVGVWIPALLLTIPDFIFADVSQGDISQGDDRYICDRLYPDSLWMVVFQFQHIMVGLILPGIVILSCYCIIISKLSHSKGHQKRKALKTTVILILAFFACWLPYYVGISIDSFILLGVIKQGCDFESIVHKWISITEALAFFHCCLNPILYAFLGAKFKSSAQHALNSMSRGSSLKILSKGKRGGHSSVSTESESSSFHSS

Molecule: N#CC(=C(/N)Sc1ccccc1N)/C(C#N)=C(\N)Sc1ccccc1N [U0126]
effect of pretreatment on SDF-1β potentiation of BMP-2 signal transduction [1]: abolished

Molecule: CN(C)C(=N)N=C(N)N [metformin]
increase of Alizarin red staining for calcium compared to control cells (18 month MSCs [2]): ~20 fold | expression of endogenous SDF-1 (SDF-1): increase expression of endogenous SDF-1 | LC3B and p62 levels on further incubation (LC3B, p62, pERK; 18 month and 24 month old MSCs, 24 or 48 h of metformin treatment): gradual reduction of LC3B and p62

migration of MSCs toward BM supernatant after pretreatment of the cells (CXCR4): blocked all migration
Molecule: c1cc(CN2CCCNCCNCCCNCC2)ccc1CN1CCCNCCNCCCNCC1 [AMD3100]
effect of pretreatment on SDF-1β potentiation of BMP-2 signal transduction [1]: abolished | migration of MSCs in transwell migration system relative to control (18 month MSCs [3]): suppressed

Molecule: c1cc(-c2cnn3cc(-c4ccc(OCCN5CCCCC5)cc4)cnc23)ccn1 [Compound C]
osteogenic differentiation of MSCs (Alizarin red staining) (18 month MSCs [2]): significantly reduced

Molecule: SDF-1β: Recombinant active SDF-1β, full length amino acids 1-72 (Peprotech); in Example 9 overexpressed in engineered BMSCs
Smad1/5/8-mediated BMP-2 signal transduction via Erk1/2 phosphorylation ([1]; SDF-1β overexpressed in genetically engineered BMSCs, 300 ng/ml BMP-2 for 30 min, p<0.05): significantly potentiated | apoptosis-resistance in genetically engineered BMSCs (BMSCs [4]): significant apoptosis-resistance | increase of Alizarin red staining for calcium compared to control cells (18 month MSCs [2]): ~20 fold | migration of MSCs in transwell migration system relative to control (18 month MSCs [3]): strong migrating potential | migratory response of BMSCs (BMSCs [5]): significantly promoted | AMPK-α1 and LC3B mRNA (qRTPCR) (AMPK-α1 and LC3B): regulated autophagy at transcriptional level | migratory response of CXCR4-expressing Jurkat cells [6]: significantly promoted | LC3B and p62 levels on further incubation (LC3B, p62, pERK; 18 month MSCs, 24 or 48 h, 100 ng/mL): gradual disappearance of LC3B and p62 | effect on MAPK pathway and autophagy (LC3B distribution) (LC3B, p62, pERK; 18 month MSCs, six hours of treatment, 100 ng/mL): led to MAPK pathway activation and induced autophagy by distributing LC3B
